The record followed here is US20110008302A1, “Compositions and methods for immortalizing cells and screening for anti-cancer agents” (priority 2007, published 2011).

One assay deals with Ndy1. In words: siRNA knock down in MEFs (Western blot, real time PCR of p16Ink4a, p19Arf, Ezh2, miR-101). Type of assay: cell-based, mouse. As to conditions: passage 3 MEFs, knock down of the short form of Ndy1. Here is the method: At a time point four days after transfection cells were analyzed by Western blotting and total mRNA was collected and analyzed by real-time PCR with primers specific for p16^Ink4a and p19^Arf and primers specific for the long and short forms of Ndy1. (n=3)*p<0.05
MEFs overexpressing Ndy1 or Ndy2 and MEFs in which Ndy1 was knocked down with siRNA (1433-[…]-1454, SEQ ID NO: 1), were monitored for senescence by light microscopy and β-galactosidase staining and by cell counting at each passage. Transfection of siRNA was carried out using Lipofectamine 2000 (Invitrogen; Carlsbad, Calif.). Knockdown of Ndy1 was confirmed by Western blotting and real time RTPCR.
For siRNA. MEFs transfected with Ndy1 (1433-[…]-1454; SEQ ID NO: 51) or control siRNA (Dharmacon) were plated at 10^5 cells per 6 cm dish and 3-4 days later were harvested and analyzed (Pfau, R., et al. (2008) Proc Natl Acad Sci USA 105, 1907-12, incorporated herein by reference in its entirety). MEFs were transfected with the help of Lipofectamine 2000 (Invitrogen). To specifically knock down the short form of Ndy1 the following siRNA were used: 5′-[…]-′3 (SEQ ID NO: 52) which specifically targets the exon1 of the v2 isoform of Ndy1 (NM_013910). siRNAs for Ezh2 (a mix of two siRNAs form Applied Biosystems, #AM16708 siID #157427 and #157426) and Bmi-1 (Santa Cruz Biotechnologies, # sc-29815) were used in a final concentration of 80 nM.
In general terms: In western blotting, separated proteins are transferred to a membrane and probed.

In assay [1] the test system is MEFs. As to the kind of experiment: Stimulation of serum-starved MEFs with growth factors or serum (Ezh2, Ndy1, miR-101 levels). It counts as cell-based, mouse. The note with it: serum-starved MEFs, 24 hours after stimulation; for Ezh2 expression: 20 ng/ml (serum 10%). On the procedure:
MEFs were transfected with control siRNA and stimulated with serum (10%) for 1, 4, 12 and 18 hours. (upper) Nuclear extracts were probed with antibody specific for Ezh2 and for CREB, levels of which served as loading control. (lower) Ndy1 and Ezh2 mRNA levels were measured with real time RT-PCR; GAPDH mRNA levels were used as internal control. Data are expressed as mean±SD.
Serum starved MEFs were stimulated with each of FGF-2 (20 ng/ml), IGF-1 (20 ng/ml), PDGF (20 ng/ml), serum (10%), VEGF (20 ng/ml), EGF (20 ng/ml) or TNFα (50 ng/ml). Nuclear extracts were probed with antibody specific for Ezh2 and for CREB, levels of which served as loading control.
Data are expressed as mean±SD.
MEFs transfected with control siRNA were stimulated with FGF-2 for 1, 4, 12 or 18 hours. (upper) Nuclear extracts were probed with antibody specific for Ezh2. CREB levels served as loading control. (middle) Ndy1 and Ezh2 mRNA were measured with real time RT-PCR; GAPDH mRNA levels were used as internal control. Data are expressed as mean±SD. (lower) miR-101 levels were measured with real time RT-PCR; U6 small nuclear RNA levels were used as internal control. Data are expressed as mean±SD.
For stimulation with FGF-2 (Cell signalling, catalog number 8910), IGF-1 (R&D Systems, catalog number 791-MG), PDGF (Cell signalling, catalog number 9909), VEGF (R&D systems, catalog number 493-MV), EGF (R&D systems, catalog number 236-EG), TNFα (Cell Signalling, catalog number 2169), cells were serum starved for 16 hours and growth factors were added at a final concentration of 20 ng/ml each, for 24 hours.
To identify a pathway regulating Ezh2 expression via the Ndy1/miR-101 axis, serum-starved MEFs were stimulated with FGF-2, IGF-1, PDGF, EGF, VEGF, TNFα or serum and were examined for expression of Ezh2, Ndy1 and miR-101 before and 24 hours after stimulation. […] This was confirmed with analyses in which FGF-2 was used to stimulate serum-starved MEFs transfected with a control siRNA or siRNA for Ndy1 (FIG. 36).

Assay [2] concerns MEFs. As to the kind of experiment: Oxidant/antioxidant treatment of MEFs, Ezh2 Western blot. It counts as cell-based, mouse. As to conditions: NAC 5 mM, Trolox 1 mM, H2O2 0.5 or 1 mM. Here is the method: MEFs were treated with NAC (5 mM), Trolox (1 mM) or H2O2 (0.5 or 1 mM). Nuclear extracts were probed with antibodies specific for Ezh2 and for CREB, levels of which served as loading control.
(§1) TROLOX ((±)-6-Hydroxy-2,5,7,8-tetramethylchromane-2-carboxylic acid, (Sigma, catalog number 238813), NAC (N-Acetyl-L-cysteine, Sigma, catalog number A9165), H2O2 (Sigma, catalog number H-1009) and PD173074 (N-[2-[[4-(Diethylamino)butyl]amino]-6-(3,5-dimethoxyphenyl)pyrido[2,3-d]pyrimidin-7-yl]-N′-(1,1-dimethylethyl) urea, FGFR-1/3 inhibitor, TOCRIS Bioscience, catalog number 3044) were added directly in the culture at the indicated concentrations.

The test system of a further assay is WIDR cells. As to the kind of experiment: PD173074 treatment of WIDR cells (Western blot, real time RT-PCR). Type of assay: cell-based, human. On the procedure:
WIDR cell were treated with 0.5 μM PD173074 or carrier for 24 hours. (upper) Nuclear and cytoplasmic extracts were probed with antibodies specific for each of Ndy1, Ezh2 and phosphoERK antibodies. CREB and ERK levels served as loading controls. (lower) miR-101 levels were measured with real time RT-PCR; U6 small nuclear RNA levels were used as internal control. Data are expressed as mean±SD.
WIDR cells were transduced with an HA.Ndy1 overexpression construct or the empty vector (EV), and were subsequently treated with 0.5 μM PD173074 or carrier for 24 hours. (upper) Nuclear extracts were probed with antibodies specific for each of with HA-tag (exogenous Ndy1), Ndy1 (both endogenous and exogenous Ndy1) and Ezh2. CREB levels served as loading controls. (lower) miR-101 levels were measured with real time RT-PCR; U6 small nuclear RNA levels were used as internal controls. Data are expressed as mean±SD.
as §1
(§2) As a next step, FGF signaling was examined to determine importance for Ezh2 upregulation by Ndy1 in these cells. To address this issue, TCCSUP or WIDR cells, two of the above five cell lines, were treated with PD173074, an inhibitor of both FGFR1 and both FGFR3.
(§3) To examine if ectopic expression of Ndy1 reverses the effects of PD173074, namely miR-101 upregulation and Ezh2 downregulation, TCCSUP or WIDR cells were transduced with a pBabe-based retroviral Ndy1 overexpression construct. Cells transduced with the empty pBabe vector were used as control. The engineered cells were subsequently treated with PD173074. Nuclear lysates from these cells were probed with antibodies specific for each of HA-tag (exogenous Ndy1), Ndy1 (both exogenous and endogenous), Ezh2, and CREB. RNA isolated from the same cells was used to measure miR-101 levels with real time RT-PCR.

The test system of the next assay is TCCSUP cells. As to the kind of experiment: PD173074 treatment of TCCSUP cells (Western blot, real time RT-PCR). It counts as cell-based, human. On the procedure: TCCSUP cells were treated with 0.5 μM PD173074 or carrier for 24 hours. (upper) Nuclear and cytoplasmic extracts were probed with antibodies specific for each of Ndy1, Ezh2 and phosphoERK. CREB and ERK levels served as loading controls. (lower) miR-101 levels were measured with real time RT-PCR; U6 small nuclear RNA levels were used as internal control. Data are expressed as mean±SD.
TCCSUP cells were transduced with an HA.Ndy1 overexpression construct or with the empty vector (EV), and were subsequently treated with 0.5 μM PD173074 or carrier for 24 hours. (upper) Nuclear extracts were probed with antibodies specific for each of HA-tag (exogenous Ndy1), Ndy1 (both endogenous and exogenous Ndy1) and Ezh2. CREB levels served as loading control. (lower) miR-101 levels were measured with real time RT-PCR; U6 small nuclear RNA levels were used as internal control. Data are expressed as mean±SD.
as §1, §2, §3

[3] abbreviates: WIDR cells overexpressing HA.Ndy1, 0.5 μM, 24 hours.
Where [4] appears, read: TCCSUP cells overexpressing HA.Ndy1, 0.5 μM, 24 hours.

“5′-CCGAGGACGACGACUAUGAUU-′3 [Ndy1 short form siRNA]”: in the assay with Ndy1, the p16Ink4a entry is listed as “did not upregulate significantly” and the p19Arf entry is reported as “did not upregulate significantly”.
As to IGF-1: growth factor, R&D Systems, in the assay on MEFs [1], the “level at which Ezh2 expression is induced” value was “at both the RNA and protein levels”; the Ezh2 expression entry was “significantly upregulated”.
VEGF: in the assay on MEFs [1], the “expression of Ndy1” value is recorded as “only moderate”, the “level at which Ezh2 expression is induced” value is “primarily at the protein level”, the miR-101 result is reported as “downregulating” and the Ezh2 expression result is given as “significantly upregulated”.
As to `CC(=O)N[C@@H](CS)C(=O)O` [NAC, N-Acetyl-L-cysteine], the Ezh2 protein levels entry in the assay on MEFs [2] is given as “no effect”.
Regarding PDGF, in the assay with MEFs [1], the “level at which Ezh2 expression is induced” value was “at both the RNA and protein levels”; the Ezh2 expression entry was “significantly upregulated”.
Turning to `Cc1c(C)c2c(c(C)c1O)CCC(C)(C(=O)O)O2` (racemic) [Trolox, (±)-6-Hydroxy-2,5,7,8-tetramethylchromane-2-carboxylic acid], in the assay with MEFs [2], the Ezh2 protein levels result is “no effect”.
In the case of `CCN(CC)CCCCNc1ncc2cc(-c3cc(OC)cc(OC)c3)c(NC(=O)NC(C)(C)C)nc2n1` [PD173074, N-[2-[[4-(Diethylamino)butyl]amino]-6-(3,5-dimethoxyphenyl)pyrido[2,3-d]pyrimidin-7-yl]-N′-(1,1-dimethylethyl) urea], the “FGF signaling (level of ERK1/2 phosphorylation)” value in the assay on WIDR cells (WIDR cells) and in the assay on TCCSUP cells (TCCSUP cells) was “blocked” each time. The “effect on Ezh2” value with WIDR cells (setting [3]) and in the assay on TCCSUP cells (setting [4]) was “abrogated” each time. Moreover, the “effect on miR-101” value in the assay on WIDR cells (setting [3]) and in the assay on TCCSUP cells (setting [4]) was “abrogated” in each case. The Ezh2 protein level result in the assay on WIDR cells (WIDR cells, 0.5 μM, 24 hours) is listed as “downregulates”; in the assay with TCCSUP cells (TCCSUP cells, 0.5 μM, 24 hours) it was “downregulates”. The Ndy1 protein level entry is recorded as “downregulates” with WIDR cells (WIDR cells, 0.5 μM, 24 hours) and “downregulates” with TCCSUP cells (TCCSUP cells, 0.5 μM, 24 hours). The miR-101 levels result in the assay on WIDR cells (WIDR cells, 0.5 μM, 24 hours) is “upregulates”; in the assay on TCCSUP cells (TCCSUP cells, 0.5 μM, 24 hours), “upregulates”.
On to `OO` [H2O2], for which, in the assay with MEFs [2], the Ezh2 protein levels result was “no effect”.
